Source: the NIST ThermoML archive (doi:10.1016/j.tca.2017.10.021)
Numbers after ± are expanded uncertainties.

Conditions: Crystal, Transpiration method

## Cl.N [ammonium chloride (NH4Cl)]
463 K
  vapor or sublimation pressure: 0.4871 ± 0.02 kPa
473 K
  vapor or sublimation pressure: 0.7748 ± 0.031 kPa
483 K
  vapor or sublimation pressure: 1.14 ± 0.045 kPa
493 K
  vapor or sublimation pressure: 1.683 ± 0.074 kPa
503 K
  vapor or sublimation pressure: 2.758 ± 0.12 kPa
513 K
  vapor or sublimation pressure: 3.639 ± 0.18 kPa
543 K
  vapor or sublimation pressure: 11.54 ± 0.52 kPa

## CN.Cl [methylammonium chloride]
393 K
  vapor or sublimation pressure: 0.0044 ± 0.0003 kPa
403 K
  vapor or sublimation pressure: 0.0085 ± 0.0004 kPa
413 K
  vapor or sublimation pressure: 0.0171 ± 0.0008 kPa
423 K
  vapor or sublimation pressure: 0.0307 ± 0.0015 kPa
435.5 K
  vapor or sublimation pressure: 0.0643 ± 0.003 kPa
455 K
  vapor or sublimation pressure: 0.1683 ± 0.0068 kPa
463 K
  vapor or sublimation pressure: 0.2868 ± 0.015 kPa
473 K
  vapor or sublimation pressure: 0.4424 ± 0.018 kPa
483 K
  vapor or sublimation pressure: 0.7211 ± 0.043 kPa
493 K
  vapor or sublimation pressure: 1.116 ± 0.057 kPa
513 K
  vapor or sublimation pressure: 2.499 ± 0.098 kPa
